This passage reports IC50 results from US20260234165A1, “MACROCYCLIC COMPOUNDS, PREPARATION METHOD THEREFOR, AND USE THEREOF” (GENFLEET THERAPEUTICS (SHANGHAI) INC., priority 2004, published 2026).

Like-named read-outs stand apart in the source and are kept apart here.

Type in all cases: cell-based, human
The subject of one test is NCI-H441 cells. Briefly: 3D cell proliferation assay (CellTiter Glo-3D), NCI-H441. Particulars: medium with 2% FBS, read-out: H441 AP IC50. In a few lines:
(§1)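 Luminescence read-out (CellTiter-Glo 3D) after 5-day compound exposure at 37 °C, 5% CO2. Cells: NCI-H441 and AsPC-1, 800/well, RPMI-1640 + 2% FBS, 0.1% DMSO final. IC50 by four-parameter fit of % inhibition against log concentration.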

Test [1] relates to p-ERK in AsPC-1 cells (KRAS G12D mutation). Briefly: Cell p-ERK assay (HTRF) in AsPC-1 cells. To be noted: AsPC-1 cells, 3 h compound incubation, HTRF p-ERK T202/Y204, read-out: AsPC-1 p-ERK IC50. In a few lines:
(§2)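 Phospho-ERK inhibition measured by HTRF after a 3 h compound exposure (0.1% DMSO) in overnight-seeded cells; IC50 derived from dose-response fitting.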

Test [2] relates to AsPC-1 cells (KRAS G12D mutation). The test can be described thus: 3D cell proliferation assay (CellTiter Glo-3D), AsPC-1. Particulars: medium with 2% FBS, read-out: AsPC-1 AP IC50. In a few lines: as §1
The subject of test [3] is p-ERK in NCI-H441 cells (KRAS G12V mutation). Briefly: Cell p-ERK assay (HTRF) in NCI-H441 cells. To be noted: NCI-H441 cells, 3 h compound incubation, HTRF p-ERK T202/Y204, read-out: H441 p-ERK IC50. In a few lines: as §2
Where [4] appears, read: 3D cell proliferation (CellTiter Glo-3D).
The mark [5] stands for this setting: Homo sapiens, NCI-H441, 3D cell proliferation (CellTiter Glo-3D).
[6] abbreviates: Homo sapiens, ASPC1, 3D cell proliferation (CellTiter Glo-3D).

With `CCn1c(-c2cc(OCCN3CCOCC34CC4)cnc2[C@H](C)OC)c2c3cc(ccc31)-c1csc(n1)C[C@H](NC(=O)[C@H]1C[C@@H]1C(F)F)C(=O)N1CCC[C@H](N1)C(=O)OCC1(CC1)C2` (relative stereo) [Compound Z557, (1S,2S)—N-((3′S,4′S,Z)—(Ra)-2′-(5-(2-(7-oxa-4-azaspiro[2,5]octan-4-yl)ethoxy)-2-((S)-1-methoxyethyl)pyridin-3-yl)-1′-ethyl-5′,7′-dioxospiro[cyclopropane-1,10′-8-oxa-2(4,2)-thiazola-1(5,3)-indola-6(1,3)-pyridazinacycloundecaphan]-4′-yl)-2-trans-(difluoromethyl)cyclopropane-1-carboxamide], the IC50 amounted to 7.66 nM in the test on NCI-H441 cells (setting [4]), 20.7 nM in test [1], 16.3 nM in test [2] (setting [4]) and 5.56 nM in test [3].
Consider `CCn1c(-c2cc(OCC3(N4CCCOCC4)CC3)cnc2[C@H](C)OC)c2c3cc(ccc31)-c1csc(n1)C[C@H](NC(=O)[C@H]1[C@H](C)[C@@H]1C)C(=O)N1CCC[C@H](N1)C(=O)OCC1(CC1)C2` (atropisomer, axis not shown; (Ra)) [Compound Z464, (1r,2R,3,S)—N-((3′S,4′S,Z)—(Ra)-2′-(5-((1-(1,4-oxazepan-4-yl)cyclopropyl)methoxy)-2-((S)-1-methoxyethyl)pyridin-3-yl)-1′-ethyl-5′,7′-dioxospiro[cyclopropane-1,10′-8-oxa-2(4,2)-thiazola-1(5,3)-indola-6(1,3)-pyridazinacycloundecaphan]-4′-yl)-2,3-dimethylcyclopropane-1-carboxamide], for which the IC50 with NCI-H441 cells (setting [4]) amounted to 6.32 nM; in test [1], 3.03 nM; in test [2] (setting [4]), 15 nM; in test [3] it was 1.9 nM.
Regarding `CCn1c(-c2cc([C@H]3CCN4CCOC[C@H]4C3)cnc2[C@H](C)OC)c2c3cc(ccc31)-c1csc(n1)C[C@H](NC(=O)[C@H]1[C@H](C)[C@@H]1C)C(=O)N1CCC[C@H](N1)C(=O)OCC1(CC1)C2` (single isomer, unassigned) [Compound Z78], the IC50 in the test on NCI-H441 cells (setting [5]) came to 7.54 nM; in test [1] (Homo sapiens, ASPC1, 3 h) it was 18.7 nM; in test [2] (setting [6]), 28.3 nM; in test [3] (Homo sapiens, NCI-H441, 3 h) it was 9.86 nM.
As to `CCn1c(-c2cc(OCCN3CCS(=O)(=O)CC3)cnc2[C@H](C)OC)c2c3cc(ccc31)-c1csc(n1)C[C@H](NC(=O)[C@H]1[C@H](C)[C@@H]1C)C(=O)N1CCC[C@H](N1)C(=O)OCC(C)(C)C2` (atropisomer, axis not shown; (Ra)) [Compound Z469, (0r,2R,3S)—N-((6^3S,4S,Z)—(Ra)-1^2-(5-(2-(1,1-dioxidothiomorpholino)ethoxy)-2-((S)-1-methoxyethyl)pyridin-3-yl)-1^1-ethyl-10,10-dimethyl-5,7-dioxo-6^1,6^2,6^3,6^4,6^5,6^6-hexahydro-1^1H-8-oxa-2(4,2)-thiazola-1(5,3)-indola-6(1,3)-pyridazinacycloundecaphane-4-yl)-2,3-dimethylcyclopropane-1-carboxamide], the concentration for half-maximal inhibition (IC50) in the test on NCI-H441 cells (setting [5]) worked out at 0.09 nM; in test [1], 0.11 nM; in test [2] (setting [6]), 0.24 nM; in test [3], 0.35 nM.
With `CCn1c(-c2cc(C#C[C@]3(C)CCCN3C)cnc2[C@H](C)OC)c2c3cc(ccc31)-c1csc(n1)C[C@H](NC(=O)[C@H]1[C@H](C)[C@@H]1C)C(=O)N1CCC[C@H](N1)C(=O)OCC(C)(C)C2` (atropisomer, axis not shown; (Ra)) [Compound Z642], the IC50 came out at 0.36 nM with NCI-H441 cells (setting [5]); 0.4 nM in test [1] (Homo sapiens, ASPC1, 3 h); 0.65 nM in test [2] (setting [6]); 0.29 nM in test [3] (Homo sapiens, NCI-H441, 3 h).
The corresponding values for `CC[C@H](C)C(=O)N[C@H]1Cc2nc(cs2)-c2ccc3c(c2)c(c(-c2cc(OCCN4CCS(=O)(=O)CC4)cnc2[C@H](C)OC)n3CC)CC(C)(C)COC(=O)[C@@H]2CCCN(N2)C1=O` (atropisomer, axis not shown; (Ra)) [Compound Z609, (2S)—N-((6^3S,4S,Z)—(Ra)-1^2-(5-(2-(1,1-dioxidothiomorpholino)ethoxy)-2-((S)-1-methoxyethyl)pyridin-3-yl)-1^1-ethyl-10,10-dimethyl-5,7-dioxo-6^1,6^2,6^3,6^4,6^5,6^6-hexahydro-1^1H-8-oxa-2(4,2)-thiazola-1(5,3)-indola-6(1,3)-pyridazinacycloundecaphane-4-yl)-2-methylbutanamide] are 0.22 nM, 0.76 nM, 0.79 nM and 0.76 nM.
As for `CCn1c(-c2cc(OCCN3CCS(=O)(=NC)CC3)cnc2[C@H](C)OC)c2c3cc(ccc31)-c1csc(n1)C[C@H](NC(=O)[C@H]1[C@H](C)[C@@H]1C)C(=O)N1CCC[C@H](N1)C(=O)OCC(C)(C)C2` (atropisomer, axis not shown; (Ra)) [Compound Z601, (1r,2R,3S)—N-((6^3S,4S,Z)-1^1-ethyl-1^2-(Ra)-(2-((S)-1-methoxyethyl)-5-(2-(1-(methylimino)-1-oxido-1λ^6-thiomorpholino)ethoxy)pyridin-3-yl)-10-10-dimethyl-5,7-dioxo-6^1,6^2,6^3,6^4,6^5,6^6-hexahydro-1^1H-8-oxa-2(4,2)-thiazola-1(5,3)-indola-6(1,3)-pyridazinacycloundecaphane-4-yl)-2,3-dimethylcyclopropane-1-carboxamide], the IC50 with NCI-H441 cells (setting [5]) was determined as 0.36 nM; in test [1] (Homo sapiens, ASPC1, 3 h) it was 0.49 nM; in test [2] (setting [6]), 0.58 nM; in test [3] (Homo sapiens, NCI-H441, 3 h), 0.62 nM.
As to `CCn1c(-c2cc(C#CC(=O)N3CCCOCC3)cnc2[C@H](C)OC)c2c3cc(ccc31)-c1csc(n1)C[C@H](NC(=O)[C@H]1[C@H](C)[C@@H]1C)C(=O)N1CCC[C@H](N1)C(=O)OCC(C)(C)C2` (atropisomer, axis not shown; (Ra)) [Compound Z810, (1r,2R,3S)—N-((6^3S,4S,Z)-1^1-ethyl-(Ra)-1-(5-(3-(1,4-oxazepan-4-yl)-3-oxoprop-1-yn-1-yl)-2-((S)-1-methoxyethyl)pyridin-3-yl)-10,10-methyl-5,7-dioxo-6^1,6^2,6^3,6^4,6^5,6^6hexahydro-1^1H-8-oxa-2(4,2)-thiazola-1(5,3)-indola-6(1,3)-pyridazinacycloundecaphane-4-yl)-2,3-dimethylcyclopropane-1-carboxamide], the IC50 with NCI-H441 cells (setting [5]) was determined as 1.83 nM; in test [1], 1.35 nM; in test [2] (setting [6]), 3.22 nM; in test [3] it was 1.65 nM.
With `CCn1c(-c2cc(C#CC(C)(C)N3CCC(OC)CC3)cnc2[C@H](C)OC)c2c3cc(ccc31)-c1csc(n1)C[C@H](NC(=O)[C@H]1[C@H](C)[C@@H]1C)C(=O)N1CCC[C@H](N1)C(=O)OCC(C)(C)C2` (atropisomer, axis not shown; (Ra)) [Compound Z628-1, (1r,2R,3S)—N-((6^3S,4S,Z)-1^1-ethyl-(Ra)-1^2-(2-((S)-1-methoxyethyl)-5-(3-(4-methoxypiperidin-1-yl)-3-methylbut-1-yn-1-yl)pyridin-3-yl)-10,10-dimethyl-5,7-dioxo-6^1,6^2,6^3,6^4,6^5,6^6hexahydro-1^1H-8-oxa-2(4,2)-thiazola-1(5,3)-indola-6(1,3)-pyridazinacycloundecaphane-4-yl)-2,3-dimethylcyclopropane-1-carboxamide], the IC50 was found to be 0.34 nM in the test on NCI-H441 cells (setting [4]), 0.31 nM in test [1], 0.62 nM in test [2] (setting [4]) and 0.35 nM in test [3].
Turning to `CCn1c(-c2cc(OCCN3CCOC4(CC4)C3)cnc2[C@H](C)OC)c2c3cc(ccc31)-c1csc(n1)C[C@H](NC(=O)[C@@H]1[C@@H](C)[C@H]1c1ccncn1)C(=O)N1CCC[C@H](N1)C(=O)OCC(C)(C)C2` (atropisomer, axis not shown; (Ra)) [Compound Z661-2, (1R,2S,3R)—N-((6^3S,4S,Z)—(Ra)-1^2-(5-(2-(4-oxa-7-azaspiro[2,5]octan-7-yl)ethoxy)-2-((S)-1-methoxyethyl)pyridin-3-yl)-11-ethyl-10,10-dimethyl-5,7-dioxo-6^1,6^2,6^3,6^4,6^5,6^6-hexahydro-1^1H-8-oxa-2(4,2)-thiazola-1(5,3)-indola-6(1,3)-pyridazinacycloundecaphane-4-yl)-2-methyl-3-(pyrimidin-4-yl)cyclopropane-1-carboxamide], the IC50 stood at 0.83 nM in the test with NCI-H441 cells (setting [5]); 3.99 nM in test [1] (Homo sapiens, ASPC1, 3 h); 2.68 nM in test [2] (setting [6]); 1.58 nM in test [3] (Homo sapiens, NCI-H441, 3 h).
